8 compounds from ChEMBL document CHEMBL2163299, “Cytotoxic effects of combination of oxidosqualene cyclase inhibitors with atorvastatin in human cancer cells” (J Med Chem, 2012) can be followed below.

Series [1] is described as follows: physchem. The note with it: 1-octanol/TAPSO buffer, pH 7.4.
Description: 1-Octanol-TAPSO buffer distribution coefficient, log D of the compound at pH 7.4 by shake-flask method
In series [2] the test system is OVCAR. Briefly: Cytotoxicity against human OVCAR cells after 72 hrs by MTT assay. Format: functional, cell-based.
Series [3] has as its system LN-18. Nature of the series: Inhibition of DNA synthesis in human LN18 cells assessed as inhibition of tritiated thymidine incorporation at 1 to 3 uM after 24 hrs by beta counting. Type of series: functional, cell-based.
Series [4] has as its system MCF7. Nature of the series: cells. The note with it: Homo sapiens, MCF7, 72 h.
Description: Cytotoxicity against human MCF7 cells after 72 hrs by MTT assay
Series [5] is described as follows: Chemical stability of compound at pH 7.4 after 24 hrs. The note with it: buffer, pH 7.4, 24 h. Format: physicochemical.
For series [6] the following is noted: pampa, pH 6.5.
Description: Permeability of compound at pH 6.5 assessed as compound binding to lipid membrane by PAMPA
Series [7] in a line: (§1) Cytotoxicity against human LN18 cells assessed as reduction in cell survival after 72 hrs by MTT assay. Format: functional, cell-based. The settings on record: LN-18, 72 h.
Series [8] can be described thus: cells. The note with it: Homo sapiens, HCEC, 72 h.
Description: Cytotoxicity against human HCEC cells assessed as reduction in cell survival after 72 hrs by MTT assay
Series [9] is described as follows: Cytotoxicity against human LNZ308 cells after 72 hrs by MTT assay. Type of series: functional, cell-based. The note with it: LNZ308, 72 h.
Series [10] relates to A549. Nature of the series: Cytotoxicity against human A549 cells after 72 hrs by MTT assay. Type of series: functional, cell-based. The note with it: A549, 72 h.
Series [11] deals with HeLa. Briefly: cells. The note with it: Homo sapiens, 72 h.
Description: Cytotoxicity against human HeLa cells after 72 hrs by MTT assay
Series [12] is described as follows: Chemical stability of compound at pH 4.0 after 24 hrs. Type of series: physicochemical. The note with it: buffer, pH 4, 24 h.
A short description of series [13]: Cytotoxicity against human Me300 cells after 72 hrs by MTT assay. Format: functional, cell-based. The settings on record: Me300, 72 h.
Series [14] is described as follows: Cytotoxicity against human LN229 cells assessed as reduction in cell survival after 72 hrs by MTT assay. The settings on record: LN-229, 72 h. Format: functional, cell-based.
Series [15] deals with KB. Briefly: Cytotoxicity against human KB cells after 72 hrs by MTT assay. Format: functional, cell-based.
In series [16] the test system is LN-229. Briefly: Inhibition of DNA synthesis in human LN229 cells assessed as inhibition of tritiated thymidine incorporation at 1 to 3 uM after 24 hrs by beta counting. Format: functional, cell-based.
The subject of series [17] is LNCaP. Nature of the series: Cytotoxicity against human LNCAP cells after 72 hrs by MTT assay. Type of series: functional, cell-based.
Series [18] concerns the target T1, Lanosterol synthase (Homo sapiens, UniProt P48449).
T1 sequence (P48449 whole entry): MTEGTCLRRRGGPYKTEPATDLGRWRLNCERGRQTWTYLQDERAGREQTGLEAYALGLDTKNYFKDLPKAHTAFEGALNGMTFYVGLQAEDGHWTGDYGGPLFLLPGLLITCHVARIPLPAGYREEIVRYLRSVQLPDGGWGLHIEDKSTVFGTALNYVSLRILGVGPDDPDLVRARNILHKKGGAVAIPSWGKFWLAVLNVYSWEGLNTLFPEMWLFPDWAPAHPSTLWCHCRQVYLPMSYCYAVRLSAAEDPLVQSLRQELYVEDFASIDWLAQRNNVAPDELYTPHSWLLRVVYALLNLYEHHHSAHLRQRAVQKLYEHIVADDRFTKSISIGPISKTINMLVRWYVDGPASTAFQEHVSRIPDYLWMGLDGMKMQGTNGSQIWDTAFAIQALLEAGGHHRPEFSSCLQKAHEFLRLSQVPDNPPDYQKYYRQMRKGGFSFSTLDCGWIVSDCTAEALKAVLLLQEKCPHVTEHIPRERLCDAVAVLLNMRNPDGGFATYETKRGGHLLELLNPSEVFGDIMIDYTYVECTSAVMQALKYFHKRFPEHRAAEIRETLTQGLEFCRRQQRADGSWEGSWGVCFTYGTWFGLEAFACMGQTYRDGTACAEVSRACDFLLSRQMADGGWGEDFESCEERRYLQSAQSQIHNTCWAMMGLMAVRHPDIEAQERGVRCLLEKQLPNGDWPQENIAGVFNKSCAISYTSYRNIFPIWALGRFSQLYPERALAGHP
Nature of the series: Inhibition of human liver microsome 2,3-OSC after 1 hr by Silica gel plate phosphor imaging.

Series [19] can be described thus: in vitro. The settings on record: pampa, pH 6.5.
Description: Apparent permeability of compound at pH 6.5 by PAMPA
In series [20] the test system is Caco-2. Briefly: cells. The note with it: Homo sapiens, Caco-2, 72 h.
Description: Cytotoxicity against human Caco2 cells after 72 hrs by MTT assay
For series [21], the system named is LN-18. Briefly: Inhibition of lipid synthesis in human LN18 cells assessed as [14C]acetate incorporation after 24 hrs by Beta-counting. Format: functional, cell-based.
Series [22] relates to LN-229. Briefly: Inhibition of lipid synthesis in human LN229 cells assessed as [14C]acetate incorporation after 24 hrs by Beta-counting. Format: functional, cell-based.
Series [23] concerns LN-18. The series is described as §1. Type of series: functional, cell-based.
For series [24], the system named is LN-229. Briefly: Cytotoxicity against human LN229 cells at 4 uM after 72 hrs by MTT assay in presence of atorvastatin. Type of series: functional, cell-based.
Series [25] deals with LN-18. Briefly: Cytotoxicity against human LN18 cells at 2 to 10 uM after 72 hrs by MTT assay in presence of atorvastatin. Type of series: functional, cell-based.

The source made the active and inactive calls. The rule behind the calls is not given here. Where only a bound is given, the exact number is not on record here.

For `CCN(CCO)C[C@H]1CC[C@H](CCN(C)C(=O)Oc2ccc(C(F)(F)F)cc2)CC1.O=C(O)CC(O)(CC(=O)O)C(=O)O`, in series [1], the logD turned out to be 2.53. Further, the IC50 in series [2] is over 30 µM; in [4], over 30 µM; in series [7], 18.9 µM; in series [8], over 30 µM; in [9], 23.2 µM; in [10], 22.7 µM. The half-inhibitory concentration (IC50) was 10 µM in series [11]; over 30 µM in series [13]; over 30 µM in series [14]; 10 µM in series [15]; over 30 µM in series [17]; 12.7 nM in [18]. Moreover, the IC50 in [20] turned out to be 10 µM. The inhibition entry in series [3] and in [16] was “Active” in each case. In addition, the Stability result in series [5] and in series [12] was “Stable” each time. In [6], the permeability is 5%. The same compound came in with a Papp in [19] of 5.11 ×10⁻⁶ cm/s.
On to `C=CCN(C)CCCCC[C@H]1CC[C@H](N(C)C(=O)Oc2ccc(C(F)(F)F)cc2)CC1.O=C(O)CC(O)(CC(=O)O)C(=O)O`, for which, in [1], the logD was 3.48. Further, the half-inhibitory concentration (IC50) was 12.9 µM in series [2]; 20.7 µM in series [4]; 2.8 µM in series [7]; 5.1 µM in series [8]; 2.1 µM in series [9]; 6.93 µM in series [10]. Besides, the half-inhibitory concentration (IC50) in [11] stood at 1.06 µM; in series [13] it was 16 µM; in series [14], 8.3 µM; in series [15], 1.02 µM; in series [17], 4.62 µM; in [18], 5 nM. The same compound yielded an IC50 in [20] of 6.3 µM. In addition, the inhibition entry in [3] and in series [16] was “Active” in each case. Also, the Stability result in series [5] and in series [12] was “Stable” each time. The compound also returned a permeability in series [6] of 25%. The same compound gave a Papp in series [19] of 13 ×10⁻⁶ cm/s.
For the compound `CC(C)c1c(C(=O)Nc2ccccc2)c(-c2ccccc2)c(-c2ccc(F)cc2)n1CC[C@@H](O)C[C@@H](O)CC(=O)O` [ATORVASTATIN CALCIUM], the IC50 was over 30 µM in series [2]; over 30 µM in series [4]; 6.9 µM in series [7]; 7.44 µM in series [9]; over 30 µM in [10]; 4.22 µM in [11]. For the same compound, the IC50 in series [13] was 1.2 µM; in series [14] it was 8.1 µM; in series [15], 1.97 µM; in series [17], over 30 µM. Besides, the inhibition result in series [21] and in series [22] was “Dose-dependent effect” in each case. Besides, the inhibition entry in series [3] and in series [16] was “Active” each time.
In series [1], `CN(CC[C@H]1CC[C@H](C(=O)N2CCC(O)CC2)CC1)C(=O)Oc1ccc(Cl)cc1` displayed a logD of 2.93. For the same compound, the IC50 in series [2], in series [4], in [7], in series [8], in [9] and in [10] was over 30 µM each time. Moreover, the IC50 is 21.8 µM in [11]; 25 µM in series [13]; over 30 µM in series [14]; 7.58 µM in [15]; 5.55 µM in [17]; 28.7 nM in series [18]. In series [20], this compound gave an IC50 of over 30 µM. The inhibition result in [3] and in series [16] was “Active” each time. Further, the Stability result in series [5] and in [12] was “Stable” throughout. In series [6], this compound returned a permeability of 2%. This compound also returned an apparent permeability (Papp) in series [19] of 5.05 ×10⁻⁶ cm/s.
The compound `CN(CCO)CCCCC[C@H]1CC[C@H](N(C)S(=O)(=O)c2ccc(C(F)(F)F)cc2)CC1.O=C(O)/C=C/C(=O)O` registered a logD in series [1] of 3.07. Further, the IC50 in [2] was over 30 µM; in series [4], 12.3 µM; in series [7], over 30 µM; in series [8], 19 µM; in [9] it was over 30 µM; in [10], 6.09 µM. The half-maximal inhibitory concentration (IC50) was 4.53 µM in [11]; 20.9 µM in series [13]; over 30 µM in series [14]; 4.28 µM in series [15]; over 30 µM in series [17]; 11.2 nM in series [18]. The compound further registered an IC50 in series [20] of 2.67 µM. Moreover, the inhibition result in series [3] and in [16] was “Active” each time. The Stability result in series [5] and in [12] was “Stable” throughout. The same compound had a permeability in [6] of 50%. Also, the Papp in series [19] worked out at 1.79 ×10⁻⁶ cm/s.
In turn, `CCN(CCO)CCCC#C[C@H]1CC[C@H](N(C)C(=O)Oc2ccc(Cl)cc2)CC1.Cl` gave a logD in [1] of 2.51. The IC50 in series [2] is over 30 µM; in series [4], over 30 µM; in [7], 13.4 µM; in [8], 29.1 µM; in [9], 15.3 µM; in series [10], 13.6 µM. Also, the concentration for half-maximal inhibition (IC50) in [11] worked out at 8.64 µM; in series [13], 26.2 µM; in [14], 21.1 µM; in series [15], 5.86 µM; in series [17], 23.6 µM; in [18], 10 nM. Moreover, the IC50 in series [20] was 4.81 µM. For the same compound, the inhibition entry in [3] and in series [16] was “Active” throughout. In addition, the Stability result in [5] and in series [12] was “Stable” in each case. Further, the permeability in series [6] was found to be 10%. For the same compound, the apparent permeability coefficient (Papp) in series [19] is 2.87 ×10⁻⁶ cm/s.
`CCCN(C)CCCC#C[C@H]1CC[C@H](N(C)C(=O)Oc2ccc(Cl)cc2)CC1.O=C(O)/C=C/C(=O)O` returned a logD in [1] of 3.28. In addition, the IC50 was over 30 µM in series [2]; over 30 µM in series [4]; 28 µM in [7]; 26.3 µM in series [8]; 12.6 µM in series [9]; 8.41 µM in series [10]. Besides, the IC50 in [11] is 6.82 µM; in [13] it was 18.9 µM; in series [14] it was over 30 µM; in series [15], 4.53 µM; in series [17], 18.7 µM; in series [18], 7.8 nM. The IC50 in series [20] came out at 6.75 µM. In addition, the inhibition result in [3] and in [16] was “Active” throughout. Besides, the Stability entry in series [5] and in [12] was “Stable” in each case. For the same compound, the permeability in series [6] is recorded as 0%. The apparent permeability coefficient (Papp) in [19] turned out to be 0.81 ×10⁻⁶ cm/s.
Consider `C=CCN(C)CCCCCCOc1ccc2c(-c3ccc(Br)cc3)nsc2c1.O=C(O)/C=C/C(=O)O`, for which the log distribution coefficient (logD) in series [1] was found to be 3.43. Further, the IC50 in series [2] was over 30 µM; in series [4], 8.3 µM; in series [7], 7.6 µM; in series [8], 4.8 µM; in series [9], 4.4 µM; in series [10] it was 6.06 µM. The IC50 in series [11] was 8.85 µM; in [13], 13.4 µM; in [14] it was 5.2 µM; in series [15] it was 8.52 µM; in series [17], 19.5 µM; in series [20], 1.97 µM. Besides, the inhibition entry in series [3] and in series [16] was “Active” throughout. The Stability result in series [5] and in series [12] was “Stable” in each case. For the same compound, the permeability in [6] is listed as 40%. In series [23], the Activity result is “Dose-dependent effect”. The outcome in series [24] and in [25] was Active. For the same compound, the Papp in series [19] was 0.57 ×10⁻⁶ cm/s.
